Test results as given in patent US6407247B1, “Photo-stable cosmetic and pharmaceutical formulations containing UV-filters” (BASF Aktiengesellschaft, priority 1996, dated 2002).

Experiments:
[1] = UV absorption of the compounds of Table 2 (absorption maximum and specific extinction); format: physicochemical; parameters: λmax: unit not given beside the values; conditions: for λmax: UV absorption maximum; for E^11: specific extinction at λmax
[2] = used alone or in combination with UV-B filters; cited from earlier work

Compound | λmax ([1]; Table 2) | E^11 ([1]; Table 2) | E^11 ([1]; Table 2, (water)) | photochemical stability [2]
CC(C)(C)C(=O)C(C#N)=CNc1ccccc1C#N [Compound 10] | 338 | 995 |  | 
CCCCC(CC)COC(=O)c1ccc(NC=C(C#N)C#N)cc1 (stereo not drawn) [Compound 41] | 330 | 1191 |  | 
CCCCC(CC)COC(=O)C(C#N)=CNc1ccccc1C(=O)OC (stereo not drawn) [Compound 36] | 336 | 752 |  | 
COc1ccc(OC)c(NC=C(C#N)C(=O)C(C)(C)C)c1 [Compound 14] | 362 | 491 |  | 
CC(C)(C)C(=O)C(C#N)=CNc1ccccc1C(=O)O.OCCN(CCO)CCO [Compound 13] | 346 |  | 667 (water) | 
CCCCC(CC)COC(=O)c1ccc(NC=C(C#N)C(=O)C(C)(C)C)cc1 (stereo not drawn) [Compound 1] | 346 | 860 |  | 
CCOc1ccccc1NC=C(C#N)C(=O)C(C)(C)C [Compound 18] | 352 | 876 |  | 
CCCCC(CC)COC(=O)c1ccccc1NC=C(C(=O)OCC)C(=O)OCC (stereo not drawn) [Compound 38] | 335 | 630 |  | 
CCOC(=O)C(=CNc1ccccc1C(=O)OC)C(=O)OCC [Compound 37] | 336 | 890 |  | 
CCCCC(CC)COC(=O)C(C#N)=CNc1cc(OC)ccc1OC (stereo not drawn) [Compound 33] | 350 | 612 |  | 
CCCCC(CC)COC(=O)c1ccccc1NC=C(C(C)=O)C(=O)OC(C)(C)C (stereo not drawn) [Compound 31] | 344 | 717 |  | 
CC(C)c1ccc(NC=C(C#N)C(=O)C(C)(C)C)cc1 [Compound 7] | 342 | 903 |  | 
CCCCOC(=O)c1ccccc1NC=C(C#N)C(=O)C(C)(C)C [Compound 21] | 346 | 825 |  | 
CC(C)Oc1cccc(NC=C(C#N)C(=O)C(C)(C)C)c1 [Compound 12] | 340 | 829 |  | 
CCCCC(CC)COC(=O)c1ccccc1NC=C(C#N)C(=O)C(C)(C)C (stereo not drawn) [Compound 9] | 348 | 717 |  | 
CCCCC(CC)COC(=O)c1ccc(NC=C2C(=O)c3ccccc3C2=O)cc1 (stereo not drawn) [Compound 42] | 374 | 1175 |  | 
CC(C)COC(=O)c1ccccc1NC=C(C#N)C(=O)C(C)(C)C [Compound 20] | 348 | 864 |  | 
CCCCC(CC)CNC(=O)c1ccc(NC=C(C#N)C(=O)C(C)(C)C)cc1 (stereo not drawn) [Compound 6] | 346 | 773 |  | 
CCCc1ccc(NC=C(C#N)C(=O)C(C)(C)C)cc1 [Compound 8] | 342 | 918 |  | 
CCCCC(CC)COC(=O)c1ccc(NC=C(C(C)=O)C(=O)OC)cc1 (stereo not drawn) [Compound 29] | 346 | 941 |  | 
CCCCC(CC)COC(=O)C(C#N)=CNc1cc(OC)cc(OC)c1 (stereo not drawn) [Compound 34] | 322 | 761 |  | 

Compound | λmax ([1]; Table 2) | E^11 ([1]; Table 2) | E^11 ([1]; Table 2, (water)) | photochemical stability [2]
CCCCC(CC)COC(=O)c1ccc(NC=C(C#N)C(=O)c2ccccc2)cc1 (stereo not drawn) [Compound 43] | 362 | 869 |  | 
CC(C)(C)C(=O)C(C#N)=CNc1ccc(C(C)(C)C)cc1 [Compound 4] | 342 | 888 |  | 
CCCCC(CC)COC(=O)c1ccc(NC=C(C(C)=O)C(C)=O)cc1 (stereo not drawn) [Compound 27] | 346 | 1049 |  | 
CCCCOC(=O)c1ccccc1NC=C(C(C)=O)C(C)=O [Compound 25] | 344 | 938 |  | 
CCCCC(CC)COC(=O)C(C#N)=CNc1ccc(OC)cc1OC (stereo not drawn) [Compound 32] | 346 | 646 |  | 
CCCCC(CC)COC(=O)c1ccccc1NC=C1CCC(C)(C)CC1=O (stereo not drawn) [Compound 40] | 358 | 743 |  | 
CC(C)(C)C(=O)C(C#N)=CNc1ccc(S(=O)(=O)[O-])cc1.[Na+] [Compound 17] | 340 |  | 1010 (water) | 
COc1cccc(NC=C(C(C)=O)C(C)=O)c1 [Compound 26] | 336 | 1035 |  | 
COC(=O)c1ccccc1NC=C(C#N)C(=O)C(C)(C)C [Compound 19] | 348 | 995 |  | 
CC(C)(C)C(=O)C(C#N)=CNc1ccc(S(=O)(=O)O)cc1.OCCN(CCO)CCO [Compound 16] | 340 |  | 666 (water) | 
CCCCC(CC)COC(=O)c1ccccc1NC=C(C(C)=O)C(=O)CC (stereo not drawn) [Compound 28] | 346 | 757 |  | 
CCCCC(CC)COC(=O)C(C#N)=CNc1ccc(C(=O)OCC)cc1 (stereo not drawn) [Compound 35] | 332 | 1105 |  | 
CC(C)(C)C(=O)C(C#N)=CNc1ccccc1C(=O)O [Compound 15] | 346 | 965 |  | 
CCCCC(CC)COC(=O)c1ccc(NC=C2C(=O)OC(C)(C)OC2=O)cc1 (stereo not drawn) [Compound 44] | 336 | 896 |  | 
COc1ccc(C(=O)CC(=O)c2ccc(C(C)(C)C)cc2)cc1 [PARSOL 1789, 4-(1,1-dimethylethyl)-4-methoxy-dibenzoylmethane] |  |  |  | not sufficiently photochemically stable
COc1ccc(NC=C(C#N)C(=O)C(C)(C)C)cc1 [Compound 3] | 348 | 841 |  | 
Cc1cccc(NC=C(C#N)C(=O)C(C)(C)C)c1 [Compound 2] | 338 | 978 |  | 
CCCCC(CC)COC(=O)c1ccc(NC=C(C(=O)OCC)C(=O)OCC)cc1 (stereo not drawn) [Compound 39] | 320 | 700 |  | 
COC(=O)/C(=C\Nc1ccccc1C(=O)OC)C(C)=O [Compound 30] | 344 | 1008 |  | 
CCCCc1ccc(NC=C(C#N)C(=O)C(C)(C)C)cc1 [Compound 5] | 342 | 884 |  | 
